Structures can show the parent of a compound that is named as a salt.
Biological target: S. aureus GyrB ATPase (Staphylococcus aureus, UniProt P0A0K8)
Assay: S. aureus GyrB ATPase inhibition (ammonium molybdate/malachite green phosphate detection)
Type: biochemical
Settings: compound at 1 μM; inhibition of S. aureus GyrB ATPase; read-out: Percent Inhibition (1 μM)
Description: S. aureus GyrB ATPase Inhibition Activity: Compounds may be tested for inhibition of S. aureus GyrB ATPase activity using an ammonium molybdate/malachite green-based phosphate detection assay (Lanzetta, P. A., L. J. Alvarez, P. S. Reinach, and O. A. Candia, 1979, 100: 95-97). Assays can be performed in multiwell plates in 30 μl reactions containing: 50 mM Hepes buffer pH 7.5, 75 mM ammonium acetate, 8.0 mM magnesium chloride, 0.5 mM ethylenediaminetetraacetic acid, 5% glycerol, 1.0 mM 1,4-Dithio-DL-threitol, 200 nM bovine serum albumin, 1.0 μg/ml sheared salmon sperm DNA, 250 pM E. coli GyrA, 250 pM S. aureus GyrB, 250 μM ATP, and compound in dimethylsulfoxide. Reactions can be quenched with 30 μl of ammonium molybdate/malachite green detection reagent containing 1.2 mM malachite green hydrochloride, 8.5 mM ammonium molybdate tetrahydrate, and 1 M hydrochloric acid. Plates can be read in an absorbance plate reader at 650 nm and percent inhibition values can be calculated using dimethylsulfoxide (2%)-containing reactions as 0% inhibition and EDTA-containing ([…]) reactions as 100% inhibition controls. An IC50 measurement of compound potency for each compound can be determined from reactions performed in the presence of 10 different compound concentrations.

Sequence of S. aureus GyrB ATPase (P0AES4 whole entry): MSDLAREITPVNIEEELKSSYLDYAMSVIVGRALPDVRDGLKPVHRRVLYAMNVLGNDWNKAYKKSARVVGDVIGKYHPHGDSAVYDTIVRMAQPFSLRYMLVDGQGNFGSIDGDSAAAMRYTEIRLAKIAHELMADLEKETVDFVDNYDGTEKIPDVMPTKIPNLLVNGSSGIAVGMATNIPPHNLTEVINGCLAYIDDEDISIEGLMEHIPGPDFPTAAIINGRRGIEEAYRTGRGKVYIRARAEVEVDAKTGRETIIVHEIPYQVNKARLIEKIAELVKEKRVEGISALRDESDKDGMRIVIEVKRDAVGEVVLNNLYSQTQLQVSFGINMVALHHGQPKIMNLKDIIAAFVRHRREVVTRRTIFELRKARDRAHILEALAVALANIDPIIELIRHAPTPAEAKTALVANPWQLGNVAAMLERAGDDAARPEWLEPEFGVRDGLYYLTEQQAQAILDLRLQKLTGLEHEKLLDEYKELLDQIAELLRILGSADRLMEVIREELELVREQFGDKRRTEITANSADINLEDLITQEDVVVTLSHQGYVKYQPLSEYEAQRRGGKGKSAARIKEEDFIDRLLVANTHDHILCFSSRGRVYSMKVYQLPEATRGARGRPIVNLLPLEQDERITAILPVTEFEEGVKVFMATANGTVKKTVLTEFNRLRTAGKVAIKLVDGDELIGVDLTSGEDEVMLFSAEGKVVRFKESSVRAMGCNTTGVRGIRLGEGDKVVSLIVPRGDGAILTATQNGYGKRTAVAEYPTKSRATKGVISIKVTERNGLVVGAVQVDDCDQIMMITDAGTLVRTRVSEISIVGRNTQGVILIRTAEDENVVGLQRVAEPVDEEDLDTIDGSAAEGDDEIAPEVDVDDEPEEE
Sequence of S. aureus GyrB ATPase (P0A0K8 whole entry): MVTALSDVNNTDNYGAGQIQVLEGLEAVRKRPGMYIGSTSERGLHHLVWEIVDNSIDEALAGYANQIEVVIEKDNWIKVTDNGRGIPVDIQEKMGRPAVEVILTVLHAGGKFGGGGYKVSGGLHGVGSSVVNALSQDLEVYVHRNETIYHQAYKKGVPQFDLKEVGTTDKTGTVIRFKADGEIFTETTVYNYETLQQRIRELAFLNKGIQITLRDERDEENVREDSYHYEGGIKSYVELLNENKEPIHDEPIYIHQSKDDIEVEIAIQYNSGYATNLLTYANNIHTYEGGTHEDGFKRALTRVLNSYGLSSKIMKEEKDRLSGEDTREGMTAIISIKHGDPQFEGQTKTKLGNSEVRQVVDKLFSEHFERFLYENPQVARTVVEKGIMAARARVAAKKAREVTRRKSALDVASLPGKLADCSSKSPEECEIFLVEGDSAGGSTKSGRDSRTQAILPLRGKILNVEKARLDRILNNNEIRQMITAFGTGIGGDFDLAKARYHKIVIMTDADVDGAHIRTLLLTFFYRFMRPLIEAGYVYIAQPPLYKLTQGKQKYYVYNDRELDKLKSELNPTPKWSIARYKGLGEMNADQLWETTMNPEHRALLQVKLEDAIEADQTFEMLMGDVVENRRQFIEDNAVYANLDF

Structure (SMILES)	inhibition at 1 µM [%]
CCNC(=O)Nc1cc(-c2nc(C(F)(F)F)cs2)c(-c2ccc3c(c2)c(=O)c(C(=O)O)cn3[C@H](COP(=O)(O)O)C(C)(C)C)cn1 [Example 3, (S)-1-(3,3-dimethyl-1-(phosphonooxy)butan-2-yl)-6-(6-(3-ethylureido)-4-(4-(trifluoromethyl)thiazol-2-yl)pyridin-3-yl)-4-oxo-1,4-dihydroquinoline-3-carboxylic acid]	108
CCNC(=O)Nc1cc(-c2nc(C(F)(F)F)cs2)c(-c2ccc3c(c2)c(=O)c(C(=O)O)cn3[C@@H](CC)COP(=O)(O)O)cn1 [Example 5, (S)-6-(6-(3-ethylureido)-4-(4-(trifluoromethyl)thiazol-2-yl)pyridin-3-yl)-4-oxo-1-(1-(phosphonooxy)butan-2-yl)-1,4-dihydroquinoline-3-carboxylic acid]	120
CCNC(=O)Nc1cc(-c2nc(C(F)(F)F)cs2)c(-c2ccc3c(c2)c(=O)c(C(=O)O)cn3[C@H](CC)COP(=O)(O)O)cn1 [Example 6, (R)-6-(6-(3-ethylureido)-4-(4-(trifluoromethyl)thiazol-2-yl)pyridin-3-yl)-4-oxo-1-(1-(phosphonooxy)butan-2-yl)-1,4-dihydroquinoline-3-carboxylic acid]	96
CCNC(=O)Nc1cc(-c2nc(C(F)(F)F)cs2)c(-c2ccc3c(c2)c(=O)c(C(=O)O)cn3[C@H](COP(=O)(O)O)CC(C)C)cn1 [Example 7, (5)-6-(6-(3-ethylureido)-4-(4-(trifluoromethyl)thiazol-2-yl)pyridin-3-yl)-1-(4-methyl-1-(phosphonooxy)pentan-2-yl)-4-oxo-1,4-dihydroquinoline-3-carboxylic acid]	111
CCNC(=O)Nc1cc(-c2nc(C(F)(F)F)cs2)c(-c2ccc3c(c2)c(=O)c(C(=O)NCCOP(=O)(O)O)cn3C(COC)COC)cn1 [Example 8, 2-(1-(1,3-dimethoxypropan-2-yl)-6-(6-(3-ethylureido)-4-(4-(trifluoromethyl)thiazol-2-yl)pyridin-3-yl)-4-oxo-1,4-dihydroquinoline-3-carboxamido)ethyl dihydrogen phosphate hydrochloride]	108
CCNC(=O)Nc1cc(-c2nc(C(F)(F)F)cs2)c(-c2ccc3c(c2)c(=O)c(C(=O)NCCOP(=O)(O)O)cn3C2CC2)cn1 [Example 9, 2-(1-cyclopropyl-6-(6-(3-ethylureido)-4-(4-(trifluoromethyl)thiazol-2-yl)pyridin-3-yl)-4-oxo-1,4-dihydroquinoline-3-carboxamido)ethyl dihydrogen phosphate hydrochloride]	103
CCNC(=O)Nc1cc(-c2nc(C(F)(F)F)cs2)c(-c2ccc3c(c2)c(=O)c(C(=O)NCCCOP(=O)(O)O)cn3C(COC)COC)cn1 [Example 10, 3-(1-(1,3-dimethoxypropan-2-y1)-6-(6-(3-ethylureido)-4-(4-(trifluoromethyl)thiazol-2-yl)pyridin-3-yl)-4-oxo-1,4-dihydroquinoline-3-carboxamido)propyl dihydrogen phosphate hydrochloride]	12
CCNC(=O)Nc1cc(-c2nc(C(F)(F)F)cs2)c(-c2ccc3c(c2)c(=O)c(C(=O)NCCCOP(=O)(O)O)cn3C2CC2)cn1 [Example 11, 3-(1-cyclopropyl-6-(6-(3-ethylureido)-4-(4-(trifluoromethyl)thiazol-2-yl)pyridin-3-yl)-4-oxo-1,4-dihydroquinoline-3-carboxamido)propyl dihydrogen phosphate hydrochloride]	108
CCNC(=O)Nc1cc(-c2nc(C3CC3)cs2)c(-c2ccc3c(c2)c(=O)c(C(=O)O)cn3[C@H](COP(=O)(O)O)CC(C)C)cn1 [Example 12, (S)-6-(4-(4-cyclopropylthiazol-2-yl)-6-(3-ethylureido)pyridin-3-yl)-1-(4-methyl-1-(phosphonooxy)pentan-2-yl)-4-oxo-1,4-dihydroquinoline-3-carboxylic acid]	104
CCNC(=O)Nc1cc(-c2nc(C(F)(F)F)cs2)c(-c2ccc3c(=O)c(C(=O)NCCCOP(=O)(O)O)cn(Cc4noc(C)n4)c3c2)cn1 [Example 13, 3-{[(7-{6[(ethylcarbamoyl)amino]-4-[4-(trifluoromethyl)-1,3-thiazol-2-yl]pyridin-3-yl}-1-[(5-methyl-1,2,4-oxadiazol-3-yl)methyl]-4-oxo-1,4-dihydroquinolin-3-yl)carbonyl]amino}propyl dihydrogen phosphate]	99
CCNC(=O)Nc1cc(-c2nc(C(F)(F)F)cs2)c(-c2ccc3c(=O)c(C(=O)NCCCOP(=O)(O)O)cn(CC)c3c2)cn1 [Example 14, 3-{[(1-ethyl-7-{6-[(ethylcarbamoyl)amino]-4-[4-(trifluoromethyl)-1,3-thiazol-2-yl]pyridin-3-yl}-4-oxo-1,4-dihydroquinolin-3-yl)carbonyl]amino}propyl dihydrogen phosphate]	97
CCNC(=O)Nc1cc(-c2nc(C(F)(F)F)cs2)c(-c2ccc3c(=O)c(C(=O)NCCCOP(=O)(O)O)cn(CC4CC4)c3c2)cn1 [Example 15, phosphate hydrochloride]	76
CCNC(=O)Nc1cc(-c2nc(C(F)(F)F)cs2)c(-c2ccc3c(=O)c(C(=O)NCCCOP(=O)(O)O)cn(CCC(C)C)c3c2)cn1 [Example 16, 3-({[7-{6-[(ethylcarbamoyl)amino]-4-[4-(trifluoromethyl)-1,3-thiazol-2-yl]pyridin-3-yl}-1-(3-methylbutyl)-4-oxo-1,4-dihydroquinolin-3-yl]carbonyl}amino)propyl dihydrogen phosphate]	100
CCCn1cc(C(=O)NCCCOP(=O)(O)O)c(=O)c2ccc(-c3cnc(NC(=O)NCC)cc3-c3nc(C(F)(F)F)cs3)cc21 [Example 17, 3-{[(7-{6-[(ethylcarbamoyl)amino]-4-[4-(trifluoromethyl)-1,3-thiazol-2-yl]pyridin-3-yl}-4-oxo-1-propyl-1,4-dihydroquinolin-3-yl)carbonyl]amino}propyl dihydrogen phosphate]	100
CCNC(=O)Nc1cc(-c2nc(C(F)(F)F)cs2)c(-c2ccc3c(c2)c(=O)c(C(=O)OCCOP(=O)(O)O)cn3C2CC2)cn1 [Example 18, 2-(phosphonooxy)ethyl 1-cyclopropyl-6-(6-(3-ethylureido)-4-(4-(trifluoromethyl)thiazol-2-yl)pyridin-3-yl)-4-oxo-1,4-dihydroquinoline-3-carboxylate hydrochloride]	104
CCNC(=O)Nc1cc(-c2nc(C(F)(F)F)cs2)c(-c2ccc3c(c2)c(=O)c(C(=O)OCCOP(=O)(O)O)cn3C(COC)COC)cn1 [Example 19, 2-(phosphonooxy)ethyl 1-(1,3-dimethoxypropan-2-yl)-6-(6-(3-ethylureido)-4-(4-(trifluoromethyl)thiazol-2-yl)pyridin-3-yl)-4-oxo-1,4-dihydroquinoline-3-carboxylate]	110
CCNC(=O)Nc1cc(-c2nc(C(F)(F)F)cs2)c(-c2cc3c(=O)c(C(=O)O)cn(CCN(C)C)c3cc2F)cn1 [Example 20, 1-(2-(dimethylamino)ethyl)-6-(6-(3-ethylureido)-4-(4-(trifluoromethyl)thiazol-2-yl)pyridin-3-yl)-7-fluoro-4-oxo-1,4-dihydroquinoline-3-carboxylic acid]	106

From patent US20100317624A1 (ASTRAZENECA AB, priority 2009, published 2010)
